Literature values in publication PMC8391922, “The Combined Effect of Branching and Elongation on the Bioactivity Profile of Phytocannabinoids. Part I: Thermo-TRPs” (Biomedicines, 2021).
Like-named read-outs stand apart in the source and are kept apart here.

Experiments:
[1] = molecular target: T1, rat TRPA1 (Rattus norvegicus, UniProt Q6RI86); set-up: method as in PMID 21175579; conditions: cited from earlier work; for TRPA1 Efficacy (%ITC 100 μM): percentage of the effect of 100 μM allylisothiocyanate; for IC50: against agonist AITC 100 μM
T1 construct: expressed in transfected cells; host or cells: HEK-293
T1 sequence (Q6RI86 whole entry): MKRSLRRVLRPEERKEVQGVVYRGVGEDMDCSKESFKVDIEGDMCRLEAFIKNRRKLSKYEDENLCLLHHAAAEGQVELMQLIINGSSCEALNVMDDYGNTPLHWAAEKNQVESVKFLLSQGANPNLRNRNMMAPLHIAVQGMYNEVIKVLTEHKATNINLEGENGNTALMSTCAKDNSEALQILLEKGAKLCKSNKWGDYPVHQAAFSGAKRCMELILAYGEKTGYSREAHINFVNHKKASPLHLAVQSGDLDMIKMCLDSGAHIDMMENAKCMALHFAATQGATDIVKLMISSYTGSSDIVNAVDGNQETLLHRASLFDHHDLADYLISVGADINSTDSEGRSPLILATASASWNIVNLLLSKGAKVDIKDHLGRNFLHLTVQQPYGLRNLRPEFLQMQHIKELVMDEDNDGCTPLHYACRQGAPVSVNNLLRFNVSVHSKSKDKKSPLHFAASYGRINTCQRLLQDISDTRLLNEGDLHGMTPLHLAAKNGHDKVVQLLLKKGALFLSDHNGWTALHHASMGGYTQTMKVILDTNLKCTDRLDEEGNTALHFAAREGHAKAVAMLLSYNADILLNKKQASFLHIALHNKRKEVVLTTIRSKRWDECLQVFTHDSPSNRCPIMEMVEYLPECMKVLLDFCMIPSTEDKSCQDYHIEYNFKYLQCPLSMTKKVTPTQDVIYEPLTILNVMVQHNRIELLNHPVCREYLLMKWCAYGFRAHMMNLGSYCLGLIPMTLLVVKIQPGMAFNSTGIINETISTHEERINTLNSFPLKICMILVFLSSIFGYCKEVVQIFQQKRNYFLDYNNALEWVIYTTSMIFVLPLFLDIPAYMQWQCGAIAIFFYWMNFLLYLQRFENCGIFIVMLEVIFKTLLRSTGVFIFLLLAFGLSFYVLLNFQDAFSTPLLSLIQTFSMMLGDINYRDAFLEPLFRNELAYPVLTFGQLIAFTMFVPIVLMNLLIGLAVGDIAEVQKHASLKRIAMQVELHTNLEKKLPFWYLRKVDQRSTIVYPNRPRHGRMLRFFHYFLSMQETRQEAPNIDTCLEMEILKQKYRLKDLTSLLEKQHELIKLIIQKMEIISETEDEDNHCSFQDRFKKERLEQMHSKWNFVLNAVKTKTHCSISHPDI

[2] = molecular target: T2, human TRPV1 (Homo sapiens, UniProt Q8NER1); set-up: method as in PMID 21175579
T2 construct: expressed in transfected cells; host or cells: HEK-293
T2 sequence (Q8NER1 whole entry): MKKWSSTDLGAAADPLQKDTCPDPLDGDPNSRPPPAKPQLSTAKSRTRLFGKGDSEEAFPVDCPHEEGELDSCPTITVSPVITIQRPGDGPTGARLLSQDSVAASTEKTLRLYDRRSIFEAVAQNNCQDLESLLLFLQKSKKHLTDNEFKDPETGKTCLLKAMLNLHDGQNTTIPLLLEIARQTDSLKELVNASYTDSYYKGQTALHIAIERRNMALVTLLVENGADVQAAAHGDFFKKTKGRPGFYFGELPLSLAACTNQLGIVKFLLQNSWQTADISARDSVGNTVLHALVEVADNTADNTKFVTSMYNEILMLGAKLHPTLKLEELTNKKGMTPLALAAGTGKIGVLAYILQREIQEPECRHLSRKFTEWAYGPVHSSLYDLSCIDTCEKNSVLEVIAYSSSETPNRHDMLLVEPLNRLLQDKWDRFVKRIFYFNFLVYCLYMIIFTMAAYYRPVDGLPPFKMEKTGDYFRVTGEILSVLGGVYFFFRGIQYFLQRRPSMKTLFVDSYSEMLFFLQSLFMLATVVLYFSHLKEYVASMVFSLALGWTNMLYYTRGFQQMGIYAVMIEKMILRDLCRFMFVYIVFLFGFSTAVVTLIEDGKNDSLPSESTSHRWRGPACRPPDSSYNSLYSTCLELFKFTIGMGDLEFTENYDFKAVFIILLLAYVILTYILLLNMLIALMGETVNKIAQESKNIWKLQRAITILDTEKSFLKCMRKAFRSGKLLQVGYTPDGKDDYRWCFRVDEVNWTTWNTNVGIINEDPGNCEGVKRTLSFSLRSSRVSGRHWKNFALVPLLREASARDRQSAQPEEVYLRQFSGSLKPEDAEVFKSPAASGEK

[3] = molecular target: T3, rat TRPV2 (Rattus norvegicus, UniProt Q9WUD2); set-up: method as in PMID 21175579, PMID 21726418; conditions: cited from earlier work; for TRPV2 Efficacy (% IM 4 μM): percentage of the response to ionomycin 4 μM
T3 construct: expressed in transfected cells; host or cells: HEK-293
T3 sequence (Q9WUD2 1-761): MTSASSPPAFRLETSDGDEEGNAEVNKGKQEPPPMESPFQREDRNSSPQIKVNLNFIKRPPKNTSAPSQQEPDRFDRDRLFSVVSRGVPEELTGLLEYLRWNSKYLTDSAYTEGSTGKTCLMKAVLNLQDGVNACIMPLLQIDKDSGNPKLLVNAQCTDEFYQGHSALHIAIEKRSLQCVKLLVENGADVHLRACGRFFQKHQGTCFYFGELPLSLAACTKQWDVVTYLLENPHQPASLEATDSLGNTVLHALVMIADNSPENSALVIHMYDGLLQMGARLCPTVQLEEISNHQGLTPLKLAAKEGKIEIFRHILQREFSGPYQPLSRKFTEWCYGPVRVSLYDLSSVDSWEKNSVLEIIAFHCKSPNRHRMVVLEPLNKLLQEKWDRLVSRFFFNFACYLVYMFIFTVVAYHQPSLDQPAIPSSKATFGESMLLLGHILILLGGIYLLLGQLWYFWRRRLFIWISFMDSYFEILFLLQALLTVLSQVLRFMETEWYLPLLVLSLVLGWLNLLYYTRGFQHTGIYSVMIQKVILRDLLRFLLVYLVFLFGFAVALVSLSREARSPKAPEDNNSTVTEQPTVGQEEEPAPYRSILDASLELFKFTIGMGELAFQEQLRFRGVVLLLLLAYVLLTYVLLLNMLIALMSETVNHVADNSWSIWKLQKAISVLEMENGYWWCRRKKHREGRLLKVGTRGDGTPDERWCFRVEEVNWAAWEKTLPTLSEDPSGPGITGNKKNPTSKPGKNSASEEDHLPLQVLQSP

[4] = molecular target: T4, rat TRPV3 (Rattus norvegicus, UniProt Q4QYD9); set-up: method as in PMID 21175579, PMID 21726418
T4 construct: expressed in transfected cells; host or cells: HEK-293
T4 sequence (Q4QYD9 1-791): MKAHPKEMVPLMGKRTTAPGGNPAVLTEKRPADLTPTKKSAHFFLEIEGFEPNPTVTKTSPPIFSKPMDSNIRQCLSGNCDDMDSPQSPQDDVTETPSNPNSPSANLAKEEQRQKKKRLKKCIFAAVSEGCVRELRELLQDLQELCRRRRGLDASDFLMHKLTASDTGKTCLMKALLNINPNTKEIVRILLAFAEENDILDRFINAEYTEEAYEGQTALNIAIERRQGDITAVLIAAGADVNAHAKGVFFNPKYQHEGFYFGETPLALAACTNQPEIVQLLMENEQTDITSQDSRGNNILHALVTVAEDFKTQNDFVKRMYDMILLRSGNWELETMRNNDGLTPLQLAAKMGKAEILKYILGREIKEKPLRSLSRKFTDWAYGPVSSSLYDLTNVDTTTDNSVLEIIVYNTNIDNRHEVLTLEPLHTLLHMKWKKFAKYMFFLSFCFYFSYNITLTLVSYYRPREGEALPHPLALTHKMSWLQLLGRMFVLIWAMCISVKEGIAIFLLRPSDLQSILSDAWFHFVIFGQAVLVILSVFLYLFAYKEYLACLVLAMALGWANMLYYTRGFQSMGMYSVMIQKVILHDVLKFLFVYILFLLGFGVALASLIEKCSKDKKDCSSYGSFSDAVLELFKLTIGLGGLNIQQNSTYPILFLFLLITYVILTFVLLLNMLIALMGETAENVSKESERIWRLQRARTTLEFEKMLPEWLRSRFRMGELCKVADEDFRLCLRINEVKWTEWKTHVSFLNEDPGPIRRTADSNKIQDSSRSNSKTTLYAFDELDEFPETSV

[5] = molecular target: T5, rat TRPV4 (Rattus norvegicus, UniProt Q9ERZ8); set-up: method as in PMID 21175579, PMID 21726418
T5 construct: expressed in transfected cells; host or cells: HEK-293
T5 sequence (Q9ERZ8 whole entry): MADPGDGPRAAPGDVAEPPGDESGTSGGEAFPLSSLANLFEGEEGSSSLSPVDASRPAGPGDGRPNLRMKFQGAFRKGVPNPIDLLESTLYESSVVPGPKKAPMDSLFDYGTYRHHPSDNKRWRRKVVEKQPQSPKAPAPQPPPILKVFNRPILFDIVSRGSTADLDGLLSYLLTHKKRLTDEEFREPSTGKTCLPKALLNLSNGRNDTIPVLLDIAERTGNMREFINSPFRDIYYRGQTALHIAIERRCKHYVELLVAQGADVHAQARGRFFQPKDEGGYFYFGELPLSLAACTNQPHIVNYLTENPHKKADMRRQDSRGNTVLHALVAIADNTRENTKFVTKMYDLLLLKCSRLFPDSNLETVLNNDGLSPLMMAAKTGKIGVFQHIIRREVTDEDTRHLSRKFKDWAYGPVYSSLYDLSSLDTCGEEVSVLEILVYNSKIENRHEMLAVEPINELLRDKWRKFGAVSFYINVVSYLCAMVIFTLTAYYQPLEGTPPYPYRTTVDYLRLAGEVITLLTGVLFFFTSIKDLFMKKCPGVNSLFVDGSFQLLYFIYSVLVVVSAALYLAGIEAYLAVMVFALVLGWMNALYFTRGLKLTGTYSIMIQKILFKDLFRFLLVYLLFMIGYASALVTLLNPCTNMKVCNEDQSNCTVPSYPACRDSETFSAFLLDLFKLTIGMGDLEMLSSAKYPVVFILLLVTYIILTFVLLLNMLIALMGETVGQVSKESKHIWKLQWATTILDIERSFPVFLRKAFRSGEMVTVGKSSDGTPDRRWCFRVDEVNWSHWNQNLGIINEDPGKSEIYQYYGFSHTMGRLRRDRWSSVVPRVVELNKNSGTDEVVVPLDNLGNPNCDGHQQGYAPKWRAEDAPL

[6] = molecular target: T6, rat TRPM8 (Rattus norvegicus, UniProt Q8R455); set-up: method as in PMID 21175579; conditions: against agonist icilin 0.25 μM; read-out: IC50 TRPM8; cited from earlier work
T6 construct: expressed in transfected cells; host or cells: HEK-293
T6 sequence (Q8R455 whole entry): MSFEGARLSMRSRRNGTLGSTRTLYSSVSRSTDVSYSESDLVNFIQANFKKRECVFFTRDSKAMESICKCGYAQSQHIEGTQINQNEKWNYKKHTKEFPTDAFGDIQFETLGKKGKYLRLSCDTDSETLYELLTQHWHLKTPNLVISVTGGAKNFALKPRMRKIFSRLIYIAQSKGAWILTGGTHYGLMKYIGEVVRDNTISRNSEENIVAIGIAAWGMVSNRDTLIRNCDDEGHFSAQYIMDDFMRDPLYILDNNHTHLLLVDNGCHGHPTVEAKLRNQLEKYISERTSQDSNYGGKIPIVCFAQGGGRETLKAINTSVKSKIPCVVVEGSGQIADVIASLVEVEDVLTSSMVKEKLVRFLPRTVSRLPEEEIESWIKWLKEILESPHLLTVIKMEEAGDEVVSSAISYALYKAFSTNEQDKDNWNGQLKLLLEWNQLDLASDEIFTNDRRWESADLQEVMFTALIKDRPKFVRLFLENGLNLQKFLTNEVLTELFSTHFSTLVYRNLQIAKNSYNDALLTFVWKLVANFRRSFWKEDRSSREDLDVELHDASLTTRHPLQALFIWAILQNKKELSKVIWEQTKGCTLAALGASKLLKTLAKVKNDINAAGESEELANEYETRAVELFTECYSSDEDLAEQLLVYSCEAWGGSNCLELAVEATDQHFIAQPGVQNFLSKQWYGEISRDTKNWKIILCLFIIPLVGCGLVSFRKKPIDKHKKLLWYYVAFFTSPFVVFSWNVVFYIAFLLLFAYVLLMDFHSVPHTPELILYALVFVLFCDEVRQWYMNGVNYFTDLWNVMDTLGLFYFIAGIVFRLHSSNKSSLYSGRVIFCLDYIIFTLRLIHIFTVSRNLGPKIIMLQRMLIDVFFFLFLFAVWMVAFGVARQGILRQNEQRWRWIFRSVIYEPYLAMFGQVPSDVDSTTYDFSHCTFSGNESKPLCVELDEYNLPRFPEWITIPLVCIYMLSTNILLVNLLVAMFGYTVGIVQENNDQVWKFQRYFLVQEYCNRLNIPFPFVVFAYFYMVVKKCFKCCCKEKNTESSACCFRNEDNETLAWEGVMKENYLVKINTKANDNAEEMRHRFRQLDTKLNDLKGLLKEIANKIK

[7] = percentage of the response to ionomycin 4 μM; cited from earlier work

Compound	TRPA1 Efficacy (%ITC 100 μM) [1] [%]	IC50 ([1]; read-out: IC50 TRPA1) [µM]	TRPV1 Efficacy (% IM 4 μM) [2, 7]	IC50 ([2]; read-out: IC50 TRPV1; against agonist capsaicin 0.1 μM; cited from earlier work) [µM]	IC50 TRPV1 ([2]; against agonist capsaicin 0.1 μM; cited from earlier work)	TRPV2 Efficacy (% IM 4 μM) [3] [%]	IC50 ([4]; against agonist thymol 100 μM; read-out: IC50 TRPV3; cited from earlier work) [µM]	EC50 ([4]; half-maximal increase in [Ca2+]i; read-out: TRPV3 Potency EC50 (converted); cited from earlier work) [µM]	TRPV3 Efficacy (% IM 4 μM) [4, 7] [%]	TRPV4 Efficacy (% IM 4 μM) [5, 7] [%]	IC50 ([5]; read-out: IC50 TRPV4; against agonist GSK1016790A 10 nM; cited from earlier work) [µM]	EC50 ([5]; read-out: TRPV4 Potency EC50; half-maximal increase in [Ca2+]i; cited from earlier work) [µM]	IC50 ([1]; read-out: IC50 TRPA1 (converted)) [µM]	IC50 ([2]; against agonist capsaicin 0.1 μM; read-out: IC50 TRPV1; cited from earlier work) [µM]	IC50 [6] [µM]	IC50 ([3]; against agonist CBD 2 μM, read-out: IC50 TRPV2 (converted)) [µM]	IC50 ([4]; read-out: IC50 TRPV3; against agonist thymol 100 μM; cited from earlier work) [µM]	EC50 ([4]; read-out: TRPV3 Potency EC50; half-maximal increase in [Ca2+]i; cited from earlier work) [µM]	IC50 ([5]; against agonist GSK1016790A 10 nM; read-out: IC50 TRPV4; cited from earlier work) [µM]	EC50 ([5]; half-maximal increase in [Ca2+]i; read-out: TRPV4 Potency EC50; cited from earlier work) [µM]
CCCCCc1cc(O)c2c(c1)OC(C)(C)c1ccc(C)cc1-2 [9a, cannabinol]	83.3 ± 12.0	0.4	<10 <10%	> 50																
CCCCCc1cc(O)c(C/C=C(\C)CCC=C(C)C)c(O)c1 [7a, cannabigerol]	99.9 ± 1.1		33.8 ± 2.3%		sub/low micromolar range	73.6 ± 1.2	> 50	1	18.5 ± 0.7	23.7 ± 1.8	1.3	5.1								
CCCCCc1cc(O)c2c(c1)OC(C)(CCC=C(C)C)C=C2 (stereo not drawn) [8a, cannabichromene]	119.4 ± 3.1		< 10%			< 10			20.2 ± 0.4	22.9 ± 1.2			0.37	> 50	40.7	6.5	> 100	1.9	9.9	0.6
